Laboratory results published in patent US12319694B2, “Heterocyclic nitrogen-containing purine derivatives, pharmaceutical preparations containing these derivatives and their use in neuroprotection” (UNIVERZITA PALACKEHO, priority 2019, dated 2025).

Experiments:
[1] = system: SH-SY5Y human neuroblastoma cell line (differentiated phenotype); experiment: Calcein AM viability test on ATRA-differentiated SH-SY5Y cells; assay type: cell-based; settings: 24 h, DMSO control = 100%
Procedure: (§1) The SH-SY5Y human neuroblastoma cell line obtained as kind gift from Walter d'Acunto (originally purchased from ATCC—American Type Culture Collection (Manassas, VA, USA) was cultivated in Dulbecco's modified Eagle's Medium and Ham's F12 Nutrient Mixture (DMEM:F-12, 1:1), supplemented with 10% fetal bovine serum (FBS) and 1% penicillin and streptomycin at 37° C. in a humidified atmosphere 5% CO2, 95% air in passage limit up to ATCC+15. The assay was performed in 96-well microplate with 7000 SH-SY5Y cells per well. Next day, SH-SY5Y underwent all-trans retinoic acid (ATRA)-differentiation for 48 h (ATRA 10 μM). After 48 h, old DMEM/F12 media was removed by fresh media containing tested compounds at 0.1, 1 and 10 μM concentrations for 24 h. The tested compounds were dissolved in DMSO were added into the medium. The maximum concentration of DMSO in media was kept below 0.1% (v/v). The cell viability was measured by Calcein AM (1 mg/ml ThermoFisher) viability assay. Solution of Calcein AM in PBS (0.5 uM) was pipetted to cells and incubated for 50 minutes. After that the fluorescence was measured at 488/517 nm (excitation/emission) using microplate reader Infinite M200 (TECAN). Calcein AM assay is based on the dye-intracellular-esterase cleavage of non-fluorescent dye (Calcein AM) by living cells to fluorescent dye (Calcein), while dyeing cells that lose such ability. The values in Table 4 show % of viability, relative to control of all tested compounds. The control (medium with DMSO, <0.1% (v/v)) was postulated as 100% viability (see the first line of the table).

[2] = system: SH-SY5Y human neuroblastoma cell line (differentiated phenotype); experiment: Viability test, salsolinol-induced model of Parkinson's disease in differentiated SH-SY5Y (Calcein AM); assay type: cell-based; settings: 24 h
Procedure: as §1
Similarly, to the previous test the assay was performed in 96-well microplates with 7000 SH-SY5Y cells per well. Day after the seeding of cells, SH-SY5Y underwent all-trans retinoic acid (ATRA)-differentiation for 48 h (ATRA 10 μM). After 48 h, old DMEM/F12 media was removed by fresh media containing 500 μM dopaminergic neurotoxin Salsolinol (SAL) without or with tested compounds at 0.1, 1 and 10 μM concentrations. […] After 24 h the cell viability was measured by Calcein AM viability assay.

[3] = system: SH-SY5Y human neuroblastoma cell line; experiment: Oxidative stress measurement (dihydroethidium, superoxide) in SH-SY5Y, salsolinol-induced model of PD; assay type: cell-based; settings: 6 h
Procedure: The assay was performed in 96-well microplate with 7000 cells/well. Next day, SH-SY5Y underwent differentiation protocol for 48 h see above. Treatment procedure remained the same as in previous section (Cell treatment and viability/cytotoxicity assays). Additionally, oxidative stress (OS) inducers such as 6-hydroxydopamine (6-OHDA) and glutamate (Glu) alone were used as […]. Negative controls determined threshold of excessive OS. […] After 30 minutes, DHE was read at 500 nm/580 nm (excitation/emission). DHE is cell permeable dye which is selective toward superoxide radical detection.

[4] = Radical scavenging activity by ORAC assay; settings: NAUC relative to trolox; mean ± SD (n = 3)
Procedure: The ability of compounds to scavenge free radicals in vitro was determined by Oxygen Radical Absorbance Capacity (ORAC) method. In brief, fluorescein (100 μL, […]) and 25 μL of tested compound solution were added into each working well in a 96-well microplate preincubated at 37° C. Thereafter, 25 μL of 250 mM 2,2′-azobis(2-amidino-propan)dihydrochloride (AAPH) was quickly added, microplate was shaken for 5 s and the fluorescence (Ex. 485 nm, Em. 510 nm) was read every 3 min over 90 min by using microplate reader Infinite 200 (TECAN, Switzerland). The NAUC value (Net Area Under Curve) was used to express antioxidant activity relative to trolox (hydrophilic equivalent of vitamin E postulated as a standard). Substances with an ORAC value greater than 0 actively trap free radicals.

Nrf2 = experiment: Activation of Nrf2-dependent expression, EpRE-LUX reporter cell line; assay type: cell-based; settings: 24 h; tested at 100, 10, 1 and 0.1 μM, concentration of the printed value not stated; mean ± SD (n = 3)
Procedure: The ability of compounds to activate Nrf2-dependent expression was determined by EpRE-LUX reporter cell line. In brief, compounds at 100, 10, 1 and 0.1 μM concentrations of the tested compounds were incubated for 24 h with the cells. After cells lysis (10 mM Tris, 2 mM DTT), a buffer containing 0.2 mM luciferin was added to start luminescent reaction. The increase in luminescence was measured with microplate reader Infinite M200 (TECAN). Compounds with Nrf2 value higher than 0 are strong Nrf2 activators and thus will be useful agents for the treatment of neurodegenerative diseases associated with oxidative stress.

[5] = 0.1 μM compound with 500 μM Salsolinol
[6] = 1 μM compound with 500 μM Salsolinol
[7] = 10 μM compound with 500 μM Salsolinol

SMILES	% of viability, relative to control ([1]; 0.1 μM compound) [%]	% of viability, relative to control ([1]; 1 μM compound) [%]	% of viability, relative to control ([1]; 10 μM compound) [%]	Neuroprotective effect (% of control) [2, 5]	Neuroprotective effect (% of control) [2, 6]	Neuroprotective effect (% of control) [2, 7]	Oxidative stress (% of control) ([3]; 1 μM compound with SAL 500 μM)	Oxidative stress (% of control) ([3]; 10 μM compound with SAL 500 μM)	ORAC (compound/trolox) [4] [compound/trolox]	Nrf2 (relative luminiscence) (Nrf2)
COc1ccccc1Cn1cnc2c(N3CCCC3)nc(N3CCCC3)nc21 [Compound 35]	104.22	118.77	135.02	1.19 % of control	13.01 % of control	19.11 % of control	161.97 % of control	214.57 % of control	0.033 ± 0.001	0.04 ± 0.00
COc1cccc(Cn2cnc3c(N4CCCC4)nc(N4CCCC4)nc32)c1 [Compound 42]	112.01	127.94	138.52	6.86 % of control	15.44 % of control	20.05 % of control	171.55 % of control	173.94 % of control	0.029 ± 0.002	0.00 ± 0.00
c1ccc(Cn2cnc3c(N4CCC4)nc(N4CCC4)nc32)cc1 [Compound 1]	104.80	114.03	145.94	N/A (N/A = no protection)	3.03 % of control	26.08 % of control	124.48 % of control	157.22 % of control	0.052 ± 0.002	0.27 ± 0.06
